According to patent publication US20050260126A1 (priority 2002, published 2005):

What was measured:
ScN2a cells = settings: for Concentration of inhibiting cell proliferation TC: mouse
[1] = tested on: abnormal prion proteins in ScN2a cells with persistent infection of scrapie; assay: cells; assay type: cell-based, mouse; settings: for IC50: Mus musculus, ScN2a, 96 h, read-out: Inhibitory effects on producing abnormal prion protein IC50; for Inhibitory effects on producing abnormal prion proteins (in words): ScN2a cells

Q: `Cc1ccc2nc(-c3ccc(NC(=O)Nc4cccc(Cl)c4)cc3)sc2c1` [HT-043, 4-(6-methylbenzothiazol-2-yl)-N-(3-chlorophenyl-aminocarbonyl)aniline] was tested. Which “Concentration of inhibiting cell proliferation TC” value (ScN2a cells) did it give?
A: Its value is >10 µM.

Q: And the IC50 [1]?
A: Its IC50 is 100 nM.

Q: For `COc1ccc(/C=C/c2nc3ccccc3s2)cc1` [Compound N-455, 2-[2-(4-methoxyphenyl)-ethenyl]benzothiazole], which “Concentration of inhibiting cell proliferation TC” value (ScN2a cells) is on record?
A: The value was 100 µM.

Q: What about the IC50 [1] of the same compound?
A: The IC50 was 10 nM.

Q: For `CCN(CC)c1ccc2cc(-c3nc4ccccc4[nH]3)c(=O)oc2c1` [SA-272, 2-(7-diethylamino-coumarin-3-yl)-benzimidazole], which “Concentration of inhibiting cell proliferation TC” value (ScN2a cells) is on record?
A: The value was 100 µM.

Q: And the IC50 [1]?
A: Its IC50 is 1000 nM.

Q: Which “Concentration of inhibiting cell proliferation TC” value (ScN2a cells) does the source give for `Cc1ccn2cc(-c3ccccc3)nc2c1` [Compound N-463, 2-phenyl-7-methyl-imidazo[1,2-a]pyridine] here?
A: The value was 100 µM.

Q: And the IC50 [1]?
A: The IC50 was 100 nM.

Q: `Nc1ccc(-c2cn3ccccc3n2)cc1` [Compound N-461, 2-(4-aminophenyl)-imidazo[1,2-a]pyridine] was tested. Which “Concentration of inhibiting cell proliferation TC” value (ScN2a cells) did it give?
A: The value was >10 µM.

Q: And the IC50 [1]?
A: The IC50 was 100 nM.

Q: `CN(C)c1ccc2cc(-c3nc4cc(F)ccc4o3)cnc2c1` [BF-161, 5-fluoro-2-(7-dimethyl-aminoquinolin-3-yl)-benzoxazole] was tested. Which “Concentration of inhibiting cell proliferation TC” value (ScN2a cells) did it give?
A: The value was 100 µM.

Q: And the IC50 [1]?
A: The IC50 was 10 nM.

Q: With `Cc1ccc2nc(-c3ccc(NC(=O)c4cccs4)cc3)sc2c1` [HT-042, 4-(6-methylbenzothiazol-2-yl)-N-(thio-phen-2-carbonyl)aniline] as the compound, how does the “Concentration of inhibiting cell proliferation TC” value (ScN2a cells) read?
A: The value was >100 µM.

Q: And the IC50 [1]?
A: Its IC50 is 10 nM.

Q: `Cc1ccc2nc(-c3ccc(NC(=O)c4ccc(Cl)cc4)cc3)sc2c1` [HT-041, 4-(6-methylbenzothiazol-2-yl)-N-(4-chloro-benzoyl)aniline] was tested. Which “Concentration of inhibiting cell proliferation TC” value (ScN2a cells) did it give?
A: Its value is >10 µM.

Q: What about the IC50 [1] of the same compound?
A: The IC50 was 10 nM.

Q: For `Nc1cccc(-c2cn3cc(Cl)ccc3n2)c1` [Compound N-475, 2-(3-aminophenyl)-6-chloroimidazo[1,2-a]pyridine], which “Concentration of inhibiting cell proliferation TC” value (ScN2a cells) is on record?
A: Its value is 100 µM.

Q: And the IC50 [1]?
A: Its IC50 is 100 nM.

Q: `Cc1ccc2nc(-c3sc(-c4ccccc4)nc3C)cn2c1` [Compound N-473, 2-(2-phenyl-4-methylthiazol-5-yl)-6-methyl-imidazo[1,2-a]pyridine] was tested. Which “Concentration of inhibiting cell proliferation TC” value (ScN2a cells) did it give?
A: The value was 100 µM.

Q: And the IC50 [1]?
A: The IC50 was 1000 nM.

Q: How did the “Concentration of inhibiting cell proliferation TC” value (ScN2a cells) turn out when `Cc1cccc(/C=C/c2nc3cc(C)ccc3s2)c1` [Compound N-439, 2-[2-(3-methylphenyl)-ethenyl]-5-methyl-benzothiazole] was run?
A: The value was 100 µM.

Q: What about the IC50 [1] of the same compound?
A: Its IC50 is 10 nM.

Q: How did the “Concentration of inhibiting cell proliferation TC” value (ScN2a cells) turn out when `C(=C\c1cncs1)/c1nc2ccccc2o1` [BF-234] was run?
A: The value was >10 µM.

Q: And the IC50 [1]?
A: Its IC50 is 40 nM.

Q: Which “Concentration of inhibiting cell proliferation TC” value (ScN2a cells) does the source give for `Nc1ccc(-c2nc3cc(Oc4ccc(Oc5ccc6[nH]c(-c7ccc(N)cc7)nc6c5)cc4)ccc3[nH]2)cc1` [Compound N-244] here?
A: Its value is >10 µM.

Q: And the IC50 [1]?
A: Its IC50 is 10 nM.

Q: Which “Concentration of inhibiting cell proliferation TC” value (ScN2a cells) does the source give for `C/C(=C\c1ccc(N)cc1)c1nc2ccccc2[nH]1` [Compound N-442, 4-[2-(2-benzimidazolyl)-2-methylethenyl]benzenamine] here?
A: The value was 100 µM.

Q: And the IC50 [1]?
A: Its IC50 is 100 nM.

Q: What does the source list for `CN(C)c1ccc(/C=C/c2nccn2C)cc1` [BF-138, 2-[2-(4-dimethylamino-phenyl)ethenyl]-1-methylimidazole]?
A: Concentration of inhibiting cell proliferation TC (ScN2a cells): 100 µM; IC50 [1]: 100 nM

Q: Which “Concentration of inhibiting cell proliferation TC” value (ScN2a cells) does the source give for `Clc1ccc2nc(-c3cc(-c4ccccc4)no3)cn2c1` [Compound N-465, 2-(3-phenylisoxazol-5-yl)-6-chloroimidazo [1,2-a]pyridine] here?
A: The value was 100 µM.

Q: What about the IC50 [1] of the same compound?
A: The IC50 was 10 nM.

Q: What does the source list for `Cc1ccn2c(Br)c(-c3ccccc3)nc2c1` [Compound N-467, 2-phenyl-3-bromo-7-methylimidazo[1,2-a]pyridine]?
A: Concentration of inhibiting cell proliferation TC (ScN2a cells): 100 µM; IC50 [1]: 1000 nM

Q: What does the source list for `Nc1ccc(-c2nc3cc(N)ccc3s2)c(O)c1` [Compound N-232, 2-(4-amino-2-hydroxy-phenyl)-5-amino-benzothiazole]?
A: Concentration of inhibiting cell proliferation TC (ScN2a cells): 10 µM; IC50 [1]: 1 nM; Inhibitory effects on producing abnormal prion proteins (in words) [1]: highly inhibitory effects

Q: Which “Concentration of inhibiting cell proliferation TC” value (ScN2a cells) does the source give for `Nc1ccc(C(=O)Nc2ccc(-c3nc4cc(Cl)c(NC(=O)c5ccc(N)cc5)cc4[nH]3)cc2)cc1` [Compound N-246, 4-[6-(N′-(4-amino-benzoyl)amino)-5-chlorobenzimidazol-2-yl]-N-(4-aminobenzoyl)aniline] here?
A: The value was 10 µM.

Q: And the IC50 [1]?
A: The IC50 was 1 nM.

Q: What about the “Inhibitory effects on producing abnormal prion proteins (in words)” value (from here on “Inhibitory effects”) [1] of the same compound?
A: Its value is “highly inhibitory effects”.

Q: How did the “Concentration of inhibiting cell proliferation TC” value (ScN2a cells) turn out when `CN(C)c1ncc(-c2ccc3ccccc3n2)o1` [BF-221, 2-(2-dimethylamino-oxazol-5-yl)quinoline] was run?
A: Its value is >10 µM.

Q: What about the IC50 [1] of the same compound?
A: Its IC50 is 80 nM.

Q: How did the “Concentration of inhibiting cell proliferation TC” value (ScN2a cells) turn out when `Cc1cc(N)cc2nc(-c3ccc(N)c(Cl)c3)[nH]c12` [Compound N-240, 2-(4-amino-3-chloro-phenyl)-5-amino-7-methylbenzimidazole] was run?
A: Its value is 10 µM.

Q: And the IC50 [1]?
A: The IC50 was 100 nM.

Q: `Nc1ccc(-c2nc3ccc(O)cc3s2)cc1` [BF-160, 2-(4-aminophenyl)-6-hydroxybenzothiazole] was tested. Which “Concentration of inhibiting cell proliferation TC” value (ScN2a cells) did it give?
A: Its value is 10 µM.

Q: What about the IC50 [1] of the same compound?
A: Its IC50 is 10 nM.

Q: How did the “TC and safety concentration margin (in words)” value (ScN2a cells) turn out when `CN(C)c1ccc(/C=C/c2nc3cc([N+](=O)[O-])ccc3o2)cc1` [BF-135, 2-(4-dimethylamino) styryl-5-nitrobenzoxazole] was run?
A: The value was “higher TCs, therefore higher safety concentration margins”.

Q: What about the “Concentration of inhibiting cell proliferation TC” value (ScN2a cells) of the same compound?
A: The value was 100 µM.

Q: What about the IC50 [1] of the same compound?
A: Its IC50 is 1 nM.

Q: And the “Inhibitory effects” value [1]?
A: The value was “highly inhibitory effects”.

Q: Which results are given for `Clc1ccc2nc(-c3ccccc3)cn2c1` [Compound N-464, 2-phenyl-6-chloro-imidazo[1,2-a]pyridine]?
A: Concentration of inhibiting cell proliferation TC (ScN2a cells): 100 µM; IC50 [1]: 100 nM

Q: What does the source list for `Clc1ccc2nc(-c3ccc(Br)s3)cn2c1` [Compound N-472, 2-(5-bromo-2-thienyl)-6-chloroimidazo[1,2-a]pyridine]?
A: Concentration of inhibiting cell proliferation TC (ScN2a cells): 100 µM; IC50 [1]: 10 nM

Q: With `Nc1ccc(-c2nc3ccc(N)c(Cl)c3[nH]2)cc1` [Compound N-234, 2-(4-aminophenyl)-7-chloro-6-amino-benzimidazole] as the compound, how does the “Concentration of inhibiting cell proliferation TC” value (ScN2a cells) read?
A: Its value is >10 µM.

Q: And the IC50 [1]?
A: Its IC50 is 100 nM.

Q: Which “Concentration of inhibiting cell proliferation TC” value (ScN2a cells) does the source give for `Nc1ccc(C(=O)Nc2ccc(-c3nc4cc(N)ccc4[nH]3)cc2)cc1` [Compound N-243, 4-(5-aminobenzimidazol-2-yl)-N-(4-amino-benzoyl)aniline] here?
A: The value was >10 µM.

Q: What about the IC50 [1] of the same compound?
A: The IC50 was 1 nM.

Q: And the “Inhibitory effects” value [1]?
A: Its value is “highly inhibitory effects”.

Q: With `Nc1ccc(-c2nc3cc(Oc4ccc5[nH]c(-c6ccc(N)cc6)nc5c4)ccc3[nH]2)cc1` [Compound N-241] as the compound, how does the “Concentration of inhibiting cell proliferation TC” value (ScN2a cells) read?
A: The value was 10 µM.

Q: What about the IC50 [1] of the same compound?
A: Its IC50 is 10 nM.

Q: `Nc1ccccc1/C=C/c1nc2ccccc2[nH]1` [Compound N-402, 2-[2-(2-aminophenyl)ethenyl]benzimidazole] was tested. Which “Concentration of inhibiting cell proliferation TC” value (ScN2a cells) did it give?
A: The value was 50 µM.

Q: And the IC50 [1]?
A: Its IC50 is 50 nM.

Q: `Cc1ccc2nc(-c3ccc(NC(=O)c4ccc(Cl)cc4Cl)cc3)sc2c1` [HT-040, 4-(6-methylbenzothiazol-2-yl)-N-(2,4-dichlorobenzoyl)aniline] was tested. Which “Concentration of inhibiting cell proliferation TC” value (ScN2a cells) did it give?
A: Its value is >10 µM.

Q: And the IC50 [1]?
A: Its IC50 is 10 nM.

Q: For `Clc1ccc(/C=C/c2nc3ccccc3s2)c(Cl)c1` [Compound N-452, 2-[2-(2,4-dichloro-phenyl)ethenyl]-benzothiazole], which “Concentration of inhibiting cell proliferation TC” value (ScN2a cells) is on record?
A: The value was 100 µM.

Q: And the IC50 [1]?
A: Its IC50 is 100 nM.
